Reference: patent US20240358845A1 (priority 2021, published 2024)
Read-outs that look alike come from different tables or passages of the source.

Legend:
[1] = test system: Human CD33 exon 2; type: cell-based
[2] = test system: Human CD33 exon 2; details: U-87 MG glioblastoma cells; 48 hours; 10% FBS
Description: Cells. Differentiated THP-1 cells (human monocyte cells) and glioblastoma cells (human neuronal cells) were used in this study.
Targeting CD33 expression represents a treatment strategy for AD and cancer. Skipping of exon 2 of the gene expressing CD33 produces D2-CD33, a CD33 isoform that lacks a binding domain of sialic acid. In the absence of such a ligand binding domain, CD33 cannot inhibit microglial activation and phagocytosis of amyloid beta by microglial cells. Such a result is protective against AD.

[3] = test system: exon 5 of non-human primate CD33; test: CD33 exon 5 skipping (RT-PCR) in monkey PBMC after intravenous infusion; type: in vivo; details: NHP; IV infusion 2 mpk (d0) and 5 mpk (d3)
Experimental: NHP Study design. To explore the tolerability of EEV-PMO on non-human primate (NHP), two CPP-PMO constructs as well as PMO itself are dosed in staggered fashion at 2 mpk and 5 mpk through intravenous infusion on d0 and d3, respectively. […] The CPP used was CPP12, which has a cyclic amino acid sequence of FfΦRrRr. PBMCs (peripheral blood mononuclear cells) were isolated at 1 day (d4) and 7 days […] post 5 mpk injection to detect splicing correction. Blood, serum and urine samples were collected at 1 day and or 7 days post each injection for hematology, clinical chemistry, coagulation, urinalysis, cytokine and histamine analysis.
Detection of exon exclusion by RT-PCR. Although human and non-human primates share high sequence homology of CD33 gene, the 5′-UTR and splicing pattern is different. The sequence coding for the IgV domain of CD33 is located in exon 2 for human and located in exon 5 for non-human primate CD33 gene. Therefore, the skipping of exon 2 in human CD33 (D2-CD33), resulting in ΔIgV-CD33 protein, corresponds to the skipping of exon 5 of non-human primate CD33. Monkey PBMC was collected at specified time points mentioned above. Total RNA was extracted, and RT-PCR was conducted using forward primer 5′-[…]-3′ and reverse primer 5′-[…]-3′ resulting in full length CD33 mRNA (FL-CD33) at 700 bp and Exon-5 skipped CD33 mRNA (D5-CD33) at 320 bp.

[4] = test system: CD33; test: CD33 production by flow cytometry in THP1 cells; type: cell-based, human
Description: Such a result is protective against AD.
Detection of exon 2 skipping by RT-PCR and flow cytometry.

[5] = test system: dystrophin; details: mouse, in vivo
[6] = test system: Murine DMD exon 23; details: mouse, in vivo
[7] = test system: creatine kinase; details: mouse, in vivo

## 5′-GTAACTGTATTTGGTACTTCC-3′ (Ac-NLS-Lys(CPP12)-PEG12-K(N3)- (all PMO monomers) [EEV-PMO-CD33-5]
[1]
  dose dependence of exon 2 skipping: dose-dependent skipping of exon 2 CD33
  improvement of exon 2 skipping compared to unconjugated PMO-CD33: over 1000 fold
  improvement of exon 2 skipping over PMO-CD33 with Endoporter transfection: over 2 fold
[2]
  skipping of exon 2 CD33 (RT-PCR): dose-dependent skipping of exon 2 CD33
[3]
  skipping of exon 5 of CD33 gene in monkey PBMC: resulted in skipping of exon 5 of CD33 gene

## 5′-GTAACTGTATTTGGTACTTCC-3′ + CPP12-PEG12-K(CPP12)-PEG12-TFP (all PMO monomers) [EEV-PMO-CD33-4]
[4]
  production of CD33 (flow cytometry) in comparison to untreated (NT) cells: reduced production of CD33
[1]
  dose dependence of exon 2 skipping: dependent on the dose
  efficacy in inducing human CD33 exon 2 skipping (PMO sequence optimization): superior efficacy
  potency of bivalent versus monovalent EEV-PMO-CD33 in inducing CD33 exon 2 skipping: more potent than EEV-PMO-CD33-2
  skipping of exon 2 of CD33 (RT-PCR): resulted in skipping of exon 2 and the production of D2-CD33

## 5′-GGCCAAACCTCGGCTTACCTGAAAT-3′ (all PMO monomers) [ENTR-0013]
[5]
  cells positive for dystrophin in cardiac tissue: ≤ 5%
[6]
  mRNA correction and dystrophin protein expression in the heart: not in 20 mg/kg PMO treated MDX mice

## 5′-GGCCAAACCTCGGCTTACCTGAAAT-3′-click-K-PEG12-Lys(CPP12)-NLS-Ac (all PMO monomers) [ENTR-0201]
[5]
  splicing correction and dystrophin protein in comparison to 20 mpk PMO: higher amount of both splicing correction and dystrophin protein in all four muscle tissues
[5]; iv, 20 mg/kg
  duration of restored dystrophin protein (Western Blot): sustained up to four weeks
  dystrophin immunohistochemistry, skeletal muscle fibers: all the skeletal muscle fibers immunostained positive for dystrophin protein
  intensity of dystrophin expression in heart muscle tissue (immunohistochemistry): reaching near normal levels
[6]
  amount of splicing correction at 10 mg/kg versus 5 mg/kg: higher amount of splicing correction than treatment with 5 mg/kg
  exon skipping activity across muscle groups: high exon skipping activity across all the muscle groups
  mRNA correction and dystrophin protein expression in the heart: only observed in 10 mpk ENTR-201 treated MDX mice
  performance of CPP12 with Nuclear Localization Sequence versus CPP12 alone: outperformed CPP12 alone significantly
  splicing correction of dystrophin in the heart and diaphragm: also resulted in splicing correction of dystrophin in the heart and in the diaphragm
[6]; 10 mg/kg
  splicing correction of dystrophin mRNA and dystrophin protein levels: significant splicing correction of dystrophin mRNA and dystrophin protein levels
[6]; 20 mg/kg
  splicing correction of dystrophin in the heart and diaphragm: resulted in splicing correction of dystrophin in the heart and in the diaphragm
[6]; iv, 20 mg/kg
  duration of enhanced exon skipping efficiency: significant enhancements in exon skipping efficiency up to four weeks
  exon 23 skipping in Quad: 73.5±8.4%
  exon 23 skipping in diaphragm: 79.0±6.8%
  exon 23 skipping in heart: 60.5±17.2%
  splicing correction of dystrophin: resulted in splicing correction of dystrophin
[7]
  creatine kinase expression in comparison to control: decrease in creatine kinase expression in comparison to control
  serum creatine kinase level: normalized the serum creatine kinase level

## 5′-GGCCAAACCTCGGCTTACCTGAAAT-3′-C3NH-PEG4-BCN+Lys(N3)-miniPEG-NLS-ss-bA-bA-CPP12 (all PMO monomers) [ENTR-0164]
[5]
  expression of dystrophin protein levels (Western Blot): significantly corrected the expression of dystrophin protein levels
[6]; iv, 20 mg/kg
  exon 23 skipping in Quad: 59.5±2.2%
  exon 23 skipping in diaphragm: 61.0±13.7%
  exon 23 skipping in heart: 29.1±0.8%

## 5′-GGCCAAACCTCGGCTTACCTGAAAT-3′-C3NH-PEG4-BCN+Ac-NLS-Lys(CPP12)-PEG12-K(N3) (all PMO monomers) [ENTR-0165]
[5]
  expression of dystrophin protein levels (Western Blot): significantly corrected the expression of dystrophin protein levels
[6]; iv, 20 mg/kg
  exon 23 skipping in Quad: 38.5±2.5%
  exon 23 skipping in diaphragm: 30.2±2.8%
  exon 23 skipping in heart: 30.5±17.0%
